Measured values from patent US4576934A, “Antihypertensive dihydropyridine-5-phosphonic acid cyclic esters” (Nissan Chemical Industries Ltd., priority 1983, dated 1986).
Structures can show the parent of a compound that is named as a salt.

How the values were obtained:
[1] = system: taenia caecum of guinea pig; assay: Calcium antagonistic effects: relaxation of CaCl2-induced contraction of K+-depolarized taenia caecum; type: cell-based; settings: Cavia porcellus, relative to maximum relaxation by 10^-4 M papaverine, 10 mM CaCl2, 37° C., read-out: pID50 (pID50 = -log [ID50]), concentration producing 50% relaxation (converted)
Experimental: (1) Calcium antagonistic effects
Then, the preparation was depolarized by a K^+ rich solution (NaCl: 40 mM, KCl: 100 mM). After 10-20 minutes equilibration period, 10 mM of CaCl2 was added to the bathing solution. The contraction was produced, and then the test compound applied cumulatively.

[2] = system: male spontaneously hypertensive rat (SHR); assay: Antihypertensive effects: systolic blood pressure after oral administration to SHR, tail cuff method; type: in vivo; settings: read-out: Antihypertensive effects, Maximum decrease (%)
Experimental: (2) Antihypertensive effects
After oral administration of the test compound dissolved in a H2 O-PEG 400 solvent mixture (H2 O:PEG 400 (w/w)=1:3) to the male spontaneously hypertensive rat (SHR), the systolic blood pressure was measured by a tail cuff method. Prior to the measurement, rats were warmed at 50° C. for five minutes.

[3] = Acute toxicity test (LD50) in mice; settings: mouse, in vivo, male ddY mice, after seven days
Experimental: Test 2: Acute toxicity test
ddY mice (.male., 4 weeks old) were divided into groups of five mice and the test compound dissolved in purified water was administered orally (5% solution) or intraperitoneally (1% solution) to the male ddY mice.
After seven days, LD50 values were calculated from the dead […] recorded in the individual dosage groups by the method of Litchfield-Wilcoxon.

COc1ccc([C@@H]2Sc3ccccc3N(CCN(C)C)C(=O)[C@@H]2OC(C)=O)cc1 [Diltiazem, reference compound]
EC50 [1]: 275 nM
inhibition in vivo at 60 mg/kg ([2]; dose 60 mg/kg): 10%

CC1=C(C(=O)OCCN(C)Cc2ccccc2)C(c2cccc([N+](=O)[O-])c2)C(P2(=O)OC(C)CCC(C)O2)=C(C)N1 (stereo not drawn) [Hydrochloride of Example 1]
EC50 [1]: 7.08 nM
inhibition in vivo at 20 mg/kg [2]: 50%

CC1=C(C(=O)OCCN(C)Cc2ccccc2)C(c2ccccc2C(F)(F)F)C(P2(=O)OC(C)CCC(C)O2)=C(C)N1 (stereo not drawn) [Hydrochloride of Example 2]
EC50 [1]: 5.89 nM
inhibition in vivo at 20 mg/kg [2]: 45%

CC1=C(C(=O)OCCN(C)Cc2ccccc2)C(c2cccc(Cl)c2)C(P2(=O)OC(C)CCC(C)O2)=C(C)N1 (stereo not drawn) [Hydrochloride of Example 3]
EC50 [1]: 3.98 nM
inhibition in vivo at 10 mg/kg [2]: 15%

CC1=C(C(=O)OCCN(C)Cc2ccccc2)C(c2ccccc2Cl)C(P2(=O)OC(C)CCC(C)O2)=C(C)N1 (stereo not drawn) [Hydrochloride of Example 4]
EC50 [1]: 4.9 nM
inhibition in vivo at 10 mg/kg [2]: 15%

CC1=C(C(=O)OCCN(C)Cc2ccccc2)C(c2cccc([N+](=O)[O-])c2)C(P2(=O)OC(C)CC(C)O2)=C(C)N1 (stereo not drawn) [Hydrochloride of Example 5]
EC50 [1]: 2.45 nM
inhibition in vivo at 20 mg/kg [2]: 50%

CC1=C(C(=O)OCCN(C)Cc2ccccc2)C(c2ccccc2C(F)(F)F)C(P2(=O)OC(C)CC(C)O2)=C(C)N1 (stereo not drawn) [Hydrochloride of Example 6]
EC50 [1]: 4.47 nM
LD50 at 168 h ([3]; ip, i.p. (1% solution)): 17 mg/kg
LD50 at 168 h ([3]; po, p.o. (5% solution)): 53 mg/kg
inhibition in vivo at 5 mg/kg ([2]; dose 5 mg/kg): 37%

CC1=C(C(=O)OCCN(C)Cc2ccccc2)C(c2cccc(Cl)c2)C(P2(=O)OC(C)CC(C)O2)=C(C)N1 (stereo not drawn) [Hydrochloride of Example 7]
EC50 [1]: 5.5 nM
LD50 at 168 h ([3]; ip, i.p. (1% solution)): 23 mg/kg
LD50 at 168 h ([3]; po, p.o. (5% solution)): 74 mg/kg
inhibition in vivo at 20 mg/kg [2]: 49%

CC1=C(C(=O)OCCN(C)Cc2ccccc2)C(c2ccccc2Cl)C(P2(=O)OC(C)CC(C)O2)=C(C)N1 (stereo not drawn) [Hydrochloride of Example 8]
EC50 [1]: 2.82 nM
inhibition in vivo at 10 mg/kg [2]: 47%

CC1=C(C(=O)OCCN2CCN(C(c3ccccc3)c3ccccc3)CC2)C(c2cccc([N+](=O)[O-])c2)C(P2(=O)OC(C)CC(C)O2)=C(C)N1 (stereo not drawn) [Hydrochloride of Example 9]
EC50 [1]: 29.5 nM
inhibition in vivo at 20 mg/kg [2]: 36%

CC1=C(C(=O)OCCN2CCN(C(c3ccccc3)c3ccccc3)CC2)C(c2ccccc2C(F)(F)F)C(P2(=O)OC(C)CC(C)O2)=C(C)N1 (stereo not drawn) [Hydrochloride of Example 10]
EC50 [1]: 57.5 nM
inhibition in vivo at 20 mg/kg [2]: 46%

CC1=C(C(=O)OCCN2CCN(C(c3ccccc3)c3ccccc3)CC2)C(c2ccccc2Cl)C(P2(=O)OC(C)CC(C)O2)=C(C)N1 (stereo not drawn) [Hydrochloride of Example 11]
EC50 [1]: 24.5 nM
inhibition in vivo at 10 mg/kg [2]: 29%

CC1=C(C(=O)OCCN(C)Cc2ccccc2)C(c2cccc([N+](=O)[O-])c2)C(P2(=O)OCCC(C)O2)=C(C)N1 (stereo not drawn) [Hydrochloride of Example 12]
EC50 [1]: 2.57 nM
inhibition in vivo at 10 mg/kg [2]: 18%

CC1=C(C(=O)OCCN(C)Cc2ccccc2)C(c2ccccc2C(F)(F)F)C(P2(=O)OCCC(C)O2)=C(C)N1 (stereo not drawn) [Hydrochloride of Example 13]
EC50 [1]: 12.3 nM
inhibition in vivo at 10 mg/kg [2]: 39%

CC1=C(C(=O)OCCN(C)Cc2ccccc2)C(c2cccc(Cl)c2)C(P2(=O)OCCC(C)O2)=C(C)N1 (stereo not drawn) [Hydrochloride of Example 14]
EC50 [1]: 3.02 nM
inhibition in vivo at 10 mg/kg [2]: 14%

CC1=C(C(=O)OCCN(C)Cc2ccccc2)C(c2ccccc2Cl)C(P2(=O)OCCC(C)O2)=C(C)N1 (stereo not drawn) [Hydrochloride of Example 15]
EC50 [1]: 3.24 nM
inhibition in vivo at 10 mg/kg [2]: 38%

CC1=C(C(=O)OCCN(C)Cc2ccccc2)C(c2cccc([N+](=O)[O-])c2)C(P2(=O)OCC(C)(C)CO2)=C(C)N1 (stereo not drawn) [Hydrochloride of Example 16]
EC50 [1]: 3.55 nM
inhibition in vivo at 10 mg/kg [2]: 21%

CC1=C(C(=O)OCCN(C)Cc2ccccc2)C(c2ccccc2C(F)(F)F)C(P2(=O)OCC(C)(C)CO2)=C(C)N1 (stereo not drawn) [Hydrochloride of Example 17]
EC50 [1]: 4.27 nM
inhibition in vivo at 20 mg/kg [2]: 42%

CC1=C(C(=O)OCCN(C)Cc2ccccc2)C(c2cccc(Cl)c2)C(P2(=O)OCC(C)(C)CO2)=C(C)N1 (stereo not drawn) [Hydrochloride of Example 18]
EC50 [1]: 4.47 nM
inhibition in vivo at 10 mg/kg [2]: 17%

CC1=C(C(=O)OCCN(C)Cc2ccccc2)C(c2ccccc2Cl)C(P2(=O)OCC(C)(C)CO2)=C(C)N1 (stereo not drawn) [Hydrochloride of Example 19]
EC50 [1]: 5.13 nM
inhibition in vivo at 10 mg/kg [2]: 30%

COC(=O)C1=C(C)NC(C)=C(P2(=O)OCCC(C)O2)C1c1ccccc1C(F)(F)F (stereo not drawn) [Hydrochloride of Example 20]
EC50 [1]: 2.04 nM
inhibition in vivo at 20 mg/kg [2]: 32%

COC(=O)C1=C(C)NC(C)=C(P2(=O)OC(C)CC(C)O2)C1c1ccccc1C(F)(F)F (stereo not drawn) [Hydrochloride of Example 21]
EC50 [1]: 1.91 nM
inhibition in vivo at 20 mg/kg [2]: 35%

COC(=O)C1=C(C)NC(C)=C(C(=O)OCCN(C)Cc2ccccc2)C1c1cccc([N+](=O)[O-])c1 (stereo not drawn) [Nicardipine, reference compound]
EC50 [1]: 0.417 nM
LD50 at 168 h ([3]; ip, i.p. (1% solution)): 166 mg/kg
LD50 at 168 h ([3]; po, p.o. (5% solution)): 561 mg/kg
inhibition in vivo at 20 mg/kg [2]: 34%

COC(=O)C1=C(C)NC(C)=C(C(=O)OC)C1c1ccccc1[N+](=O)[O-] [Nifedipine, reference compound]
EC50 [1]: 2.88 nM
inhibition in vivo at 10 mg/kg [2]: 26%
